In PubChem BioAssay (NCI):
Values joined by “and” are separate entries in the source; they are usually repeats but may differ in a detail not shown here. Equal values may be shown once.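 Five concentrations, 48 hours, 96-well plates. The concentration for 50% growth inhibition is given as GI50. TGI: concentration producing complete growth inhibition.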

How the values were obtained:
Experiment in all cases: inhibition of tumour cell growth, NCI panel, 48 h
[1] = test system: EKVX NSCLC
[2] = test system: M14 melanoma
[3] = test system: MOLT-4 leukemia
[4] = test system: RXF 393 renal
[5] = test system: SK-MEL-2 melanoma
[6] = test system: SK-MEL-5 melanoma
[7] = test system: U251 CNS
[8] = test system: MDA-MB-435
[9] = test system: PC-3 prostate

| Compound | TGI [1] | TGI [2] | TGI [3] | TGI [4] | TGI [5] | TGI [6] | TGI [7] | GI50 [1] | TGI [8] | GI50 [3] | GI50 [4] | GI50 [5] | GI50 [6] | GI50 [7] | GI50 [2] | GI50 [8] | GI50 [9] | TGI [9] |
| --- | --- | --- | --- | --- | --- | --- | --- | --- | --- | --- | --- | --- | --- | --- | --- | --- | --- | --- |
| COC1(C)C(=O)N2C1N(C(=O)OCc1ccccc1)CC2(C)C (centres undefined) | > 100 µM | > 100 µM | > 100 µM | > 100 µM | > 100 µM | > 100 µM | > 100 µM |  |  |  |  |  |  |  |  |  |  |  |
| COc1cccc2c1[C@H]1CO[C@H]3C4C[C@H](C(=O)O)C([C@@H](C2)N13)N4C (some centres undefined) | 5.94 µM and 6.16 µM | 6.35 µM |  | 2.42 µM and 0.576 µM | 2.11 µM and 0.655 µM | 4.31 µM and 1.23 µM | 5.52 µM | 1.87 µM | 0.204 µM | 0.45 µM | 0.136 µM | 0.245 µM | 0.588 µM | 0.5 µM |  |  |  |  |
| CCN(CC)CCCC(C)Nc1c(Sc2cnc3cc(Cl)ccc3c2NC(C)CCCN(CC)CC)cnc2cc(Cl)ccc12 (centres undefined) |  | 3.29 µM | 4.57 µM | 3.22 µM | 3.3 µM |  | 2.99 µM |  |  |  |  |  |  |  |  |  |  |  |
| O=C1/C(=C/c2cccc(Br)c2)COc2ccc(O)c(O)c21 | 3.52 µM | 3.47 µM | 10.8 µM | 2.84 µM | 3.11 µM | 3.03 µM | 2.29 µM | 1.78 µM | 2.76 µM | 0.927 µM | 1.38 µM | 1.53 µM | 1.63 µM | 1.1 µM | 1.6 µM | 1.23 µM | 0.79 µM | 3.45 µM |
| N.N.N.N.N.O=S(=O)([O-])C(F)(F)F.O=S(=O)([O-])C(F)(F)F.[Os+8] | > 100 µM | 28.7 µM | 14.7 µM | 18.7 µM | 24.7 µM | 34.1 µM | 32.5 µM | 43.6 µM |  | 0.876 µM | 5.37 µM | 11.7 µM | 15 µM | 9.22 µM | 14.2 µM |  |  |  |
| CCCCc1c2c(nc3c1CCc1cc4cc5c(nc4nc1-3)-c1nc3c(c(CCCC)c1CC5)CCC/C3=C\c1ccccc1)/C(=C/c1ccccc1)CCC2 | > 100 µM | > 100 µM | > 100 µM | > 100 µM |  |  | > 100 µM |  |  |  |  |  |  |  |  |  |  |  |
| Nc1ccc(C(=O)NN2C(=O)C(Cl)C2c2cccc(O)c2)cc1 (centres undefined) | 46.6 µM | 35.2 µM | 41.1 µM |  | 30.5 µM | 31.7 µM | 25.2 µM |  |  |  |  |  |  |  |  |  |  |  |
| Cc1cc(C)nc(NS(=O)(=O)c2ccc(NC(=O)c3cccn4c(=O)c5ccccc5nc34)cc2)n1 | 99.7 µM | > 100 µM | > 100 µM | 67.4 µM | > 100 µM | > 100 µM | > 100 µM |  |  |  |  |  |  |  |  |  |  |  |
| COc1cccc(C2C(C#N)=C(N)Oc3c2ccc2ccccc32)c1 (centres undefined) | 19.6 µM | 13.3 µM | 17.8 µM | 0.975 µM | 16.5 µM | 0.108 µM | 11.1 µM | 0.0617 µM |  | 0.0409 µM | < 0.0161 µM | 0.0588 µM | < 0.0185 µM | 0.0213 µM | < 0.012 µM | < 0.01 µM | 0.0119 µM | 15.5 µM |
| COCCOCOC(C)(C)[C@H](CCOC(C)=O)O[Si](c1ccccc1)(c1ccccc1)C(C)(C)C | > 100 µM | 49.4 µM | 19.1 µM | 45.7 µM | 59.2 µM | 23.7 µM | 30.6 µM |  |  |  |  |  |  |  |  |  |  |  |
| COc1ccc(Cc2nc3ccccc3s2)cc1OC | 37.1 µM | 31.6 µM | 63.9 µM | 34.7 µM | 42.6 µM | 30.1 µM | 27.7 µM |  |  |  |  |  |  |  |  |  |  |  |
| CC(=O)[CH-]C(=O)Nc1ccccc1.CC(=O)[CH-]C(=O)Nc1ccccc1.CC[O-].CC[O-].[Ti+4] | > 100 µM | > 100 µM | > 100 µM | > 100 µM | > 100 µM | > 100 µM | > 100 µM | > 100 µM |  | > 100 µM | > 100 µM | > 100 µM | > 100 µM | > 100 µM | > 100 µM |  |  |  |
| Cc1ccc(NC(=O)CC2SC(N)=NC2=O)cc1C (centres undefined) |  | > 100 µM | > 100 µM |  | > 100 µM |  | > 100 µM |  |  |  |  |  |  |  |  |  |  |  |
| C/C(=C\Cc1cc(O)ccc1O)CCc1c(C)c(O)c(O)c(C=O)c1C | > 100 µM | 77.3 µM | > 100 µM | 43.8 µM | 54.4 µM | 30.2 µM | 59.6 µM |  |  |  |  |  |  |  |  |  |  |  |
| CC(=O)NNc1nc(C)c(C(=O)/C=C/c2ccc(/C=C/C(=O)c3sc(NNC(C)=O)nc3C)cc2)s1 | > 100 µM | > 100 µM | > 100 µM | > 100 µM | > 100 µM |  | > 100 µM |  |  |  |  |  |  |  |  |  |  |  |
| Nc1ncnc2c1nnn2C1C=C(CO)C(O)C1O (centres undefined) | > 100 µM | > 100 µM | > 100 µM | > 100 µM | > 100 µM | > 100 µM | > 100 µM |  |  |  |  |  |  |  |  |  |  |  |
| CN1CCc2c1nc(-c1cccnc1)c1c2N(C)CC1 | > 100 µM | > 100 µM | > 100 µM | > 100 µM | > 100 µM | > 100 µM | > 100 µM |  |  |  |  |  |  |  |  |  |  |  |

| Compound | TGI [1] | TGI [2] | TGI [3] | TGI [4] | TGI [5] | TGI [6] | TGI [7] | GI50 [1] | TGI [8] | GI50 [3] | GI50 [4] | GI50 [5] | GI50 [6] | GI50 [7] | GI50 [2] | GI50 [8] | GI50 [9] | TGI [9] |
| --- | --- | --- | --- | --- | --- | --- | --- | --- | --- | --- | --- | --- | --- | --- | --- | --- | --- | --- |
| O=C(COc1ccc(Cl)cc1)N1CCN(C(=O)COc2ccc(Cl)cc2)c2ccccc21 | > 100 µM |  | > 100 µM | > 100 µM | > 100 µM |  | > 100 µM |  |  |  |  |  |  |  |  |  |  |  |
| CCC1C(=O)OCc2c1cc1n(c2=O)C(CC)c2c-1nc1ccccc1c2Cl (centres undefined) | 80.4 µM | > 100 µM | > 100 µM |  | 65.4 µM | 40.5 µM | 49.4 µM |  |  |  |  |  |  |  |  |  |  |  |
| CC(=O)Nc1ccc(C(=O)N2N=C(C)/C(=C/c3cccc([N+](=O)[O-])c3)C2=O)cc1 | > 100 µM | > 100 µM | > 100 µM |  |  | > 100 µM |  |  |  |  |  |  |  |  |  |  |  |  |
| NC(=O)C12CC3CC(CC(Br)(C3)C1)C2 | > 100 µM | > 100 µM | > 100 µM |  |  | > 100 µM | > 100 µM |  |  |  |  |  |  |  |  |  |  |  |
| CC(C)=Nn1cnc(C(=N)C#N)c1N | > 100 µM | > 100 µM | > 100 µM | > 100 µM | > 100 µM |  | > 100 µM |  |  |  |  |  |  |  |  |  |  | > 100 µM |
| CCC[CH2][Sn]([CH2]CCC)([O]C(=O)/C=C/c1ccccc1F)[O]C(=O)/C=C/c1ccccc1F | 2.79 µM | 2.22 µM | 1.71 µM | 0.95 µM | 1.19 µM | 2.31 µM | 1.41 µM | 1.43 µM |  | 0.267 µM | 0.256 µM | 0.324 µM | 0.985 µM | 0.511 µM | 0.873 µM |  |  |  |
| Cc1ccc(Sc2oc(-c3ccc(C)cc3)nc2[P+](c2ccccc2)(c2ccccc2)c2ccccc2)cc1 | 1.26 µM | 1.57 µM | 1.11 µM | 1.33 µM | 2.63 µM | 0.785 µM | 1.41 µM | 0.296 µM | 1.2 µM | 0.319 µM | 0.316 µM | 1.12 µM | 0.287 µM | 0.303 µM | 0.403 µM | 0.336 µM | 0.305 µM | 1.34 µM |
| C#C[C@H]1CCCCCC1O (some centres undefined) | > 100 µM | > 100 µM | > 100 µM | > 100 µM | > 100 µM | > 100 µM | > 100 µM |  |  |  |  |  |  |  |  |  |  |  |
| CSCCCNC(=O)c1csc(-c2csc(CCNC(=O)CNC(=O)CNC(=O)CNC(=O)OC(C)(C)C)n2)n1 | > 100 µM | > 100 µM | > 100 µM | > 100 µM | > 100 µM | > 100 µM | > 100 µM |  | > 100 µM |  |  |  |  |  |  |  |  | > 100 µM |
| CCN(C(=O)CN1CCN(c2cc3c(cc2F)c(=O)c(C(=O)O)cn3CC)CC1)c1nc(-c2ccccc2)cs1 | > 100 µM | > 100 µM | > 100 µM | > 100 µM | 0.692 µM | 0.551 µM | > 100 µM | 0.372 µM | > 100 µM | 0.376 µM | 0.381 µM | 0.248 µM | 0.238 µM | 0.354 µM | 0.363 µM | 0.306 µM | 0.362 µM | > 100 µM |
| COC(=O)/C(C#N)=C1\CCc2ccccc21 | > 100 µM | > 100 µM | > 100 µM | > 100 µM | > 100 µM | > 100 µM |  |  |  |  |  |  |  |  |  |  |  |  |
| COc1ccc(-c2onc(-c3c(C)cc(C)cc3C)c2C2=NCCN2)cc1 | > 100 µM | 35.8 µM | > 100 µM | > 100 µM | > 100 µM | 36.6 µM | 46.7 µM |  |  |  |  |  |  |  |  |  |  |  |
| O=C(NCC(=O)N1CCOC1=O)OCc1ccccc1 | > 100 µM | > 100 µM | > 100 µM | > 100 µM | > 100 µM | > 100 µM | > 100 µM |  |  |  |  |  |  |  |  |  |  |  |
| COC(=O)C#CCC1CCCC1C1SCCS1 (centres undefined) | > 100 µM | > 100 µM | 75.6 µM | > 100 µM | 74.6 µM | > 100 µM | > 100 µM |  |  |  |  |  |  |  |  |  |  |  |
| CC1=C(Cl)C[C@@H](/C(C)=C\Cl)O[C@@]1(O)C(Br)Br | 80.3 µM | 67.7 µM | > 100 µM | 62.2 µM | 73.8 µM | 54.9 µM | > 100 µM |  | > 100 µM |  |  |  |  |  |  |  |  | > 100 µM |
| COC/N=C(/N)NC#N | > 100 µM | > 100 µM | > 100 µM | > 100 µM | > 100 µM | > 100 µM | > 100 µM |  |  |  |  |  |  |  |  |  |  |  |
| CC1=NN(C(=O)c2ccc(Cl)cc2)C(=O)/C1=C/c1ccc(Cl)cc1 | > 100 µM | > 100 µM | > 100 µM | > 100 µM | > 100 µM | > 100 µM | > 100 µM |  |  |  |  |  |  |  |  |  |  |  |
